In patent US8722065B2, “Lidocaine tape preparation” (priority 2007, dated 2014):

Test: Crystal precipitability of lidocaine in the tape preparation / ionic liquid
Assay type: physicochemical
Conditions: room temperature for several months
Description: A content initially inducing the crystal precipitation of lidocaine was examined. […] The crystal precipitability and transdermal absorbability therefor were evaluated. Lidoderm (registered trade name, from Endo, lidocaine content: 5%) was used as a standard material. […]

- Crystal precipitation on storage: no crystal precipitation occurred
SMILES: CC(O)C(=O)O.CCN(CC)CC(=O)Nc1c(C)cccc1C [lactic acid salt of lidocaine]
